Values quoted from earlier work in patent US20090048181A1, “Combination therapy with glatiramer acetate and n-acetylcysteine for the treatment of multiple sclerosis” (priority 2004, published 2009).

Legend:
[1] = system: relapsing-remitting multiple sclerosis; conditions: daily subcutaneous injections, 20 mg/injection
TNF-α = conditions: ten human patients suffering from multiple sclerosis; efficacy could not be ascertained
[2] = system: EAE, a murine model of multiple sclerosis

| Molecule | appearance of "black holes" [1] | appearance of new lesions by magnetic resonance imaging (MRI) [1] | progression of disability [1] | relapse rates [1] | TNF-α level (TNF-α) | induction of EAE ([2]; SJL/J mice, oral administration) | effect in animals with established EAE ([2]; established EAE, correlated with treatment in a dose-related manner) |
| --- | --- | --- | --- | --- | --- | --- | --- |
| L-glutamic acid polymer with L-alanine, L-lysine and L-tyrosine, acetate (salt) [glatiramer acetate] | reduce | reduce | reduce | reduce | – | – | – |
| CC(=O)N[C@@H](CS)C(=O)O [N-acetylcysteine] | – | – | – | – | elevation | attenuated | improvement |
